Assay results taken from patent US8562669B2, “Methods of application of coatings composed of hydrophobic, high glass transition polymers with tunable drug release rates” (Abbott Cardiovascular Systems Inc., priority 2008, dated 2013).

Assay: Cumulative drug release at 24 hours from coated stents (USP type 7 tester, porcine serum)
Format: physicochemical
Details: stent coating of everolimus and 75:25 PLGA
Description: As used herein, any measurement of drug release, for example without limitation, release rate, release duration, or substantially released, refers to the an in-vitro measurement using a United States Pharmacopeia Type VII apparatus, using porcine serum with sodium azide optionally added (0.1% w/v) at a temperature of 37° C.
All stents were cleaned by being sonicated in isopropyl alcohol. Stents were coated with a primer layer of approximately 51 μg of 75:25 PLGA (poly(D,L-lactide-co-glycolide) provided by Boehringer Ingelheim, grade RG755S) by spraying from a solution of 2 weight % polymer in 90:10 acetone:methyl isobutyl ketone (w/w). More than one pass under the coater was required to obtain the target weight of polymer on the stent. The spraying operation was carried out with a custom made spray coater equipped with a spray nozzle, a drying nozzle, and a means to rotate and translate the stent under the nozzles with the processing parameters outlined in Table 1. Subsequent to coating, all stents were baked in a forced air convection oven at 140° C. for 30 minutes. […] More than one pass under the coater was required to obtain the target weight of polymer on the stent. The spraying operation was carried out with the same coater used for the primer spraying with the following parameters outlined in Table 2. After the drug layer coating, the stents were baked in a force air convection oven at 50° C. for 1 hour. After baking the coating, the stents were crimped onto 3.0×12 mm XIENCE V catheters, placed in protective tubular coils, and then sealed in Argon filled foil pouches. The stents were not sterilized. Cumulative release of the drug everolimus at 24 hours was determined using a United States Pharmacopeia type 7 tester in porcine serum with sodium azide 0.1% (w/v) added as the dissolution media. Everolimus released into solution was determined by HPLC analysis on the amount of drug remaining on the stent. The cumulative release expressed is one minus the fractional amount of drug remaining divided by the theoretical quantity or dose of drug per stent. In this experiment, the same drug to polymer ratio and the same polymer and drug were used but the spray coating was accomplished with different solvents. In one set of stents, the solvent was 100% acetone while for other stents the solvent was a 50:50 (w/w) mixture of acetone and methyl isobutyl ketone. The cumulative release as measured of drug after 24 hours for n=3 stents is illustrated in FIG. 1.
Stents were cleaned, coated with a primer of 75/25 PLGA, and then coated with a drug layer as described in Example 1 except that the drug to polymer ratio was 1:2 (and therefore the % solids in the coating solution was 3% (w/w)). […]

cumulative release at 24 hours (drug:polymer 1:1, sprayed from 50:50 (w/w) acetone:methyl isobutyl ketone, 37° C.): about 96%
cumulative release at 24 hours (drug:polymer 1:1, sprayed from 100% acetone, 37° C.): about 23%
cumulative release at 24 hours (drug:polymer 1:2 as printed, sprayed from 50:50 (w/w) acetone:dimethyl acetamide): about 42%
cumulative release at 24 hours (drug:polymer 1:2 as printed, sprayed from 50:50 acetone:methyl isobutyl ketone): about 83%
SMILES: CO[C@H]1C[C@@H]2CC[C@@H](C)[C@@](O)(O2)C(=O)C(=O)N2CCCC[C@H]2C(=O)O[C@H]([C@H](C)C[C@@H]2CC[C@@H](OCCO)[C@H](OC)C2)CC(=O)[C@H](C)/C=C(\C)[C@@H](O)[C@@H](OC)C(=O)[C@H](C)C[C@H](C)/C=C/C=C/C=C/1C [everolimus]
